Results taken from US7956082B2, “Indole derivative having PGD2 receptor antagonist activity” (Shionogi & Co., Ltd, priority 2005, dated 2011).
Structures can show the parent of a compound that is named as a salt.

What was measured:
DP receptor [1] = target: T1, DP receptor (Homo sapiens, UniProt Q13258); assay: Receptor binding assay, [3H]-PGD2, platelet membrane; conditions: [3H]-PGD2, human platelet membrane, on ice 2 hours
T1 construct: endogenous in cells; host or cells: washed platelets from peripheral blood of a healthy volunteer (whole platelets in A1, platelet membrane fraction in A2)
T1 sequence (Q13258 1-359): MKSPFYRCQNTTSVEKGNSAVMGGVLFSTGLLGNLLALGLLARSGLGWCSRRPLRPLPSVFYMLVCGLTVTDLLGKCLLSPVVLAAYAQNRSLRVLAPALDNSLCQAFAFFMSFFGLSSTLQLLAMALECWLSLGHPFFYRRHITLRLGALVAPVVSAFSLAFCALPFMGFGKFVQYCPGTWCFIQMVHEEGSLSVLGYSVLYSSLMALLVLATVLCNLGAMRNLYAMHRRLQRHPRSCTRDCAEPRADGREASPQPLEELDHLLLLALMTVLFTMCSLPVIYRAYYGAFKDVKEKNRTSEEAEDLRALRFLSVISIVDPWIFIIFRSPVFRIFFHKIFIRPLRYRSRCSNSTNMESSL
Description: 2) Receptor Binding Assay A prepared WP was homogenated and a membrane fraction was collected with high-speed centrifugation. A compound of the present invention or a reference compound A(No. IC-73 in WO 2003/097598) was added to the plate and [^3H]-PGD2 was also added. A platelet membrane, a protein concentration is 2 mg/mL, was added and mixed in the plate, and placed on ice for 2 hours. The reaction solution was transferred to a low protein-adsorptive filter and washed with a wash solution eight times using a cell harvester. After the final washing, water was removed sufficiently, and micoscinti was added. DP inhibitory activity was investigated by measuring [^3H] by using Micro Beta.

DP receptor [2] = target: T1, DP receptor; assay: cAMP assay with washed platelets (DP inhibitory activity in vitro); format: cell-based; conditions: 100 nM PGD2, cAMP by HTRF, read-out: IC50 (50% DP-inhibitory concentration in the cAMP assay)
Description: 1) Preparation of Platelet and a Method of cAMP Assay
30 ml of peripheral blood was collected from a healthy volunteer using a syringe containing one ninth amount of 3.8% sodium citrate for diagnosis. After being centrifuged at 180 g for 10 minutes at room temperature, a supernatant was collected and used as Platelet Rich Plasma (PRP). The resulting PRP was washed with wash buffer and centrifuged three times (Washed Platelet: WP) and platelets were counted by a microcell counter. WP was added to a plate in amount of 1.5×10^8/assay and the plate was treated, with 3-isobutyl-1-methylxanthin (IBMX; 0.5 mM) for 5 minutes. A reaction was initiated by adding 100 nM of PGD2 5 min after an addition of a test compound. The reaction was terminated with an addition of 1N HCl after 2 minutes and the cells were destructed using 12% triton X-100. An amount of cAMP in the supernatant was assayed by Homogeneous […] (HTRF)

Brown Norway (BN) Rats = assay: Test using OVA asthma model of rat; format: in vivo; conditions: 10 mg/kg p.o. once a day for three days, vs control group; for inhibition rate (%) increased hyperresponsive airway: AUC of acetylcholine response curve; for inhibition rate (%) mucus-secretion: mucin in airway lavage fluid; for inhibition rate (%) infiltration of inflammatory cells: total cell number in bronchoalveolar washings
Description: Brown Norway (BN) Rats were sensitized by i.p. administration of 0.1 mg/mL of ovalbumin (OVA) and 1 mg of aluminum hydroxide gel. A solution of 1% OVA was aerosolized by ultrasonic nebulizer (NE-U17) and the rats were subjected to inhalation exposure of the aerosol for 30 minutes in an exposing chamber 12, 19, 26 and 33 days after the sensitization. One hour before the 4th exposure of the antigen, compounds of the present invention were administered in a dose of 10 mg/kg p.o. once a day for three days consecutively. In a control group, 0.5% of methyl cellulose was administered in place of the compound of the present invention.
Under pentobarbital anesthesia (80 mg/kg, i.p.), acetylcholine (3.9, 7.8, 15.6, 31.3, 62.5, 125, 250 and 500 μg/kg) was injected to jugular vein of the rats successively from a lower dose at intervals of 5 minutes three days after the fourth exposure to the antigen, and immediate contractile reaction of airways (an increase of insufflation pressure) was measured by a modified method of Konnzett & Rössler. Inhibition rate of increased hyperresponsive airway against the control group was calculated based on area under curve (AUC) obtained from concentration-response curve of acetylcholine.
After the measurement of increased hyperresponsive airway was; completed, bronchoalveoli of the rats were washed with 5 mL of saline three times. Total cell number in the washings was counted by a hemacytometer under light microscope, and inhibition rates of infiltration of inflammatory cells against the control group were calculated. Further, muchin in the airway lavage fluid was measured by ELIZA method using jacalin, a muchin-binding lectin, and the inhibition rates of mucus-secretion against the control group were calculated.

| SMILES | Ki (DP receptor [1]) [nM] | IC50 (DP receptor [2]) [nM] | further results |
| --- | --- | --- | --- |
| CC(C)Oc1ccc(S(=O)(=O)N2CC[C@H](c3cn(CC(=O)O)c4ccc(Cl)cc34)C2)cc1 (as salt: TFA) [Compound I-62] | – | – | melting point: 188 to 189 °C |
| CC(C)Oc1ccc(S(=O)(=O)N2CC[C@@H](c3cn(CC(=O)O)c4ccc(Cl)cc34)C2)cc1 (as salt: TFA) [Compound I-65] | – | – | melting point: 167 °C |
| CC(C)Oc1ccc(S(=O)(=O)N2CCC(c3cn(CC(=O)O)c4ccc(Cl)cc34)CC2)cc1 [Compound I-3] | 1.3 | 1.3 | – |
| CC(C)Oc1ccc(S(=O)(=O)N2CCC(c3cn(CC(=O)O)c4ccc(F)cc34)C2)cc1 (stereo not drawn) [Compound I-9] | 4.5 | 2.3 | – |
| CC(C)Oc1ccc(S(=O)(=O)N2CCC(c3cn(CC(=O)O)c4ccc(Cl)cc34)C2)cc1 (stereo not drawn) [Compound I-10] | 2.5 | 1 | – |
| CC(C)Oc1ccc(S(=O)(=O)N2CCC(c3cn(CC(=O)O)c4cc(Cl)ccc34)C2)cc1 (stereo not drawn) [Compound I-14] | 2.1 | 0.98 | inhibition rate (%) increased hyperresponsive airway (Brown Norway (BN) Rats): 31%; inhibition rate (%) mucus-secretion (Brown Norway (BN) Rats): 55%; inhibition rate (%) infiltration of inflammatory cells (Brown Norway (BN) Rats): 57% |
| CCOc1ccc(S(=O)(=O)N2CCC(c3cn(CC(=O)O)c4ccc(Cl)cc34)C2)cc1 (stereo not drawn) [Compound I-38] | 4.7 | 2 | – |
| CC(C)Oc1ccc(S(=O)(=O)N2CCC(c3cn(CC(=O)O)c4c(Cl)cc(Cl)cc34)C2)cc1 (stereo not drawn) [Compound I-45] | 19 | 1.5 | – |
| CC(C)Sc1ccc(S(=O)(=O)N2CCC(c3cn(CC(=O)O)c4ccc(Cl)cc34)C2)cc1 (stereo not drawn) [Compound I-59] | – | 1.1 | – |
| CC(C)Oc1ccc(S(=O)(=O)N2CC[C@@H](c3cn(CC(=O)O)c4ccc(Cl)cc34)C2)cc1 [Compound I-65] | 2.3 | 0.34 | inhibition rate (%) increased hyperresponsive airway (Brown Norway (BN) Rats): 62%; inhibition rate (%) mucus-secretion (Brown Norway (BN) Rats): 40%; inhibition rate (%) infiltration of inflammatory cells (Brown Norway (BN) Rats): 61% |
| CC(C)Oc1ccc(S(=O)(=O)N2CCC(c3cn(CC(=O)O)c4cc(-c5cccs5)ccc34)C2)cc1 (stereo not drawn) [Compound I-66] | – | 1.9 | – |
| CC(C)Oc1ccc(S(=O)(=O)N2CCC(c3cn(CC(=O)O)c4cc(-c5ccsc5)ccc34)C2)cc1 (stereo not drawn) [Compound I-67] | – | 1.4 | – |
| CC(C)Oc1ccc(S(=O)(=O)N2CCC(c3cn(CC(=O)O)c4cc(-c5ccc(C#N)cc5)ccc34)C2)cc1 (stereo not drawn) [Compound I-72] | – | 2.2 | – |
| CC(C)Oc1ccc(S(=O)(=O)N2CCC(c3cn(CC(=O)O)c4cc(-c5cccc(C#N)c5)ccc34)C2)cc1 (stereo not drawn) [Compound I-73] | – | 2 | – |
| CC(C)Oc1ccc(S(=O)(=O)N2CCC(c3cn(CC(=O)O)c4cc(-c5ccco5)ccc34)C2)cc1 (stereo not drawn) [Compound I-77] | 0.37 | 0.62 | inhibition rate (%) increased hyperresponsive airway (Brown Norway (BN) Rats): 110%; inhibition rate (%) mucus-secretion (Brown Norway (BN) Rats): 72%; inhibition rate (%) infiltration of inflammatory cells (Brown Norway (BN) Rats): 28% |
| CC(C)Oc1ccc(S(=O)(=O)N2CCC(c3cn(CC(=O)O)c4cc(-c5ccoc5)ccc34)C2)cc1 (stereo not drawn) [Compound I-78] | – | 1.2 | – |
| CC(C)Oc1ccc(S(=O)(=O)N2CC[C@@H](c3cn(CC(=O)O)c4cc(Cl)ccc34)C2)cc1 [Compound I-79] | 0.91 | 0.19 | – |
| CC(C)Oc1ccc(S(=O)(=O)N2CCC(c3cn(CC(=O)O)c4cc(N5CCOCC5)ccc34)C2)cc1.Cl (stereo not drawn) [Compound I-82] | – | – | inhibition rate (%) increased hyperresponsive airway (Brown Norway (BN) Rats): 59%; inhibition rate (%) mucus-secretion (Brown Norway (BN) Rats): 47%; inhibition rate (%) infiltration of inflammatory cells (Brown Norway (BN) Rats): 35% |
| CC(C)Oc1ccc(S(=O)(=O)N2CCC(c3cn(CC(=O)O)c4cc(-c5nnco5)ccc34)C2)cc1 (stereo not drawn) [Compound I-88] | 2.5 | 1.2 | – |
| CC(C)Oc1ccc(S(=O)(=O)N2CCC(c3cn(CC(=O)O)c4cc(-c5nccs5)ccc34)C2)cc1 (stereo not drawn) [Compound I-93] | 0.24 | 0.5 | – |
| CC(C)Oc1ccc(S(=O)(=O)N2CC[C@@H](c3cn(CC(=O)O)c4cc(-c5nccs5)ccc34)C2)cc1 [Compound I-96] | 0.21 | 0.23 | – |
| CC(C)Oc1ccc(S(=O)(=O)N2CCC(c3cn(CC(=O)O)c4cc(C#N)ccc34)CC2)cc1 [Compound I-98] | – | 0.97 | – |
| CC(C)Oc1ccc(S(=O)(=O)N2CCC(c3cn(CC(=O)O)c4cc(-c5ccccn5)ccc34)CC2)cc1 [Compound I-99] | – | 1.9 | – |
| CC(C)Oc1ccc(S(=O)(=O)N2CCC(c3cn(CC(=O)O)c4cc(-c5nccs5)ccc34)CC2)cc1 [Compound I-100] | – | 1.9 | – |
| CC(C)Oc1ccc(S(=O)(=O)N2CC[C@@H](c3cn(CC(=O)O)c4cc(-c5ccco5)ccc34)C2)cc1 [Compound I-101] | 0.21 | 0.27 | – |

Further lines, with some results ahead:

| Ki (DP receptor [1]) [nM] | IC50 (DP receptor [2]) [nM] | SMILES | further results |
| --- | --- | --- | --- |
| 4.2 | 1.3 | CC(C)Oc1ccc(S(=O)(=O)N2CCC(c3cn(CC(=O)O)c4c(Cl)cccc34)C2)cc1 (stereo not drawn) [Compound I-19] | – |
| 2.2 | 1.9 | CC(C)Oc1ccc(S(=O)(=O)N2CCC(c3cn(CC(=O)O)c4ccc(F)cc34)CC2)cc1 [Compound I-23] | – |
| 3.4 | 2.3 | CC(C)Oc1ccc(S(=O)(=O)N2CCC(c3cn(CC(=O)O)c4cc(F)ccc34)C2)cc1 (stereo not drawn) [Compound I-34] | – |
| 3.5 | 0.73 | CC(C)Oc1ccc(S(=O)(=O)N2CCC(c3cn(CC(=O)O)c4cc(Br)ccc34)C2)cc1 (stereo not drawn) [Compound I-60] | – |
| – | 1.9 | COc1ccc(-c2ccc3c(C4CCN(S(=O)(=O)c5ccc(OC(C)C)cc5)C4)cn(CC(=O)O)c3c2)cc1 (stereo not drawn) [Compound I-74] | – |
| 0.66 | 1.7 | CC(C)Oc1ccc(S(=O)(=O)N2CCC(c3cn(CC(=O)O)c4cc(-c5ccncc5)ccc34)C2)cc1.Cl (stereo not drawn) [Compound I-75] | inhibition rate (%) increased hyperresponsive airway (Brown Norway (BN) Rats): 58%; inhibition rate (%) mucus-secretion (Brown Norway (BN) Rats): 77%; inhibition rate (%) infiltration of inflammatory cells (Brown Norway (BN) Rats): 71% |
| – | 1.4 | CC(C)Oc1ccc(S(=O)(=O)N2CCC(c3cn(CC(=O)O)c4cc(-c5ccc6c(c5)OCO6)ccc34)C2)cc1 (stereo not drawn) [Compound I-80] | – |
| – | 0.86 | COc1cccc(-c2ccc3c(C4CCN(S(=O)(=O)c5ccc(OC(C)C)cc5)C4)cn(CC(=O)O)c3c2)c1 (stereo not drawn) [Compound I-81] | – |
| – | 1.3 | CC(C)Oc1ccc(S(=O)(=O)N2CCC(c3cn(CC(=O)O)c4cc(Br)ccc34)C2)cc1F (stereo not drawn) [Compound I-86] | – |
| – | 0.56 | CC(C)Oc1ccc(S(=O)(=O)N2CCC(c3cn(CC(=O)O)c4cc(-c5nncs5)ccc34)CC2)cc1 [Compound I-102] | – |
| 20 | 0.14 | CC(C)Oc1ccc(S(=O)(=O)N2CC[C@@H](c3cn(CC(=O)O)c4cc(-c5ncco5)ccc34)C2)cc1 [Compound I-103] | inhibition rate (%) increased hyperresponsive airway (Brown Norway (BN) Rats): 71%; inhibition rate (%) mucus-secretion (Brown Norway (BN) Rats): 52%; inhibition rate (%) infiltration of inflammatory cells (Brown Norway (BN) Rats): 58% |
| 1.3 | 1.2 | CC(C)Oc1ccc(S(=O)(=O)N2CCC(c3cn(CC(=O)O)c4cc(-c5ncco5)ccc34)CC2)cc1 [Compound I-104] | – |
| – | 2.3 | CC(C)Oc1ccc(S(=O)(=O)N2CCC(c3cn(CC(=O)O)c4cc(N5CCCC5=O)ccc34)C2)cc1 (stereo not drawn) [Compound I-107] | – |
